Test results from publication PMC6271893, “In Vitro Antioxidant and Cytotoxic Activity of Some Synthetic Riparin-Derived Compounds” (Molecules, 2014).
Converted amounts (≈) assume the structure as drawn. Like-named read-outs stand apart in the source and are kept apart here. Marks after values point to notes of the source that are not given here.

Tests used:
[1] = Antioxidant potential against the formation of TBARS (AAPH-induced lipid peroxidation of egg yolk homogenate); details: for IC50 TBARS: TBARS production
Protocol: (§1) For the in vitro antioxidant tests the samples were emulsified in 0.05% Tween 80 dissolved in saline 0.9% (used as the vehicle) and tested at concentrations of 1, 5, 10, 25 and 100 µg/mL. The samples for the cytotoxicity tests were diluted in pure and sterile DMSO and tested at concentrations of 25 µg/mL.
The TBARS assay was employed to quantify lipid peroxidation and an adapted TBARS method was used to measure the antioxidant capacity of the riparins (Rip-A, -B, -C, -D, -E and -F) using egg yolk homogenate as lipid rich substrate. Egg yolk was homogenized (1% w/v) in 20 mM phosphate buffer (pH 7.4), 1 mL of homogenate was sonicated and then homogenized with 0.1 mL of the samples at concentrations of 1, 5, 10, 25 and 100 µg/mL. Lipid peroxidation was induced by the addition of 0.1 mL of 2,2'-azobis(2-methylpropionamidine) dihydrochloride solution (AAPH; 0.12 M). Control was evaluated with only the vehicle. Reactions were carried out for 15 minutes at 37 °C. After cooling, samples (0.5 mL) were centrifuged with 0.5 mL of trichloroacetic acid (15%) at 1,200 ×g for 10 min. An aliquot of 0.5 mL from supernatant was mixed with 0.5 mL TBA (0.67%) and heated at 95 °C for 30 min. After cooling, sample absorbance was measured using a spectrophotometer at 532 nm. The results were expressed as percentage of TBARS formed by AAPH alone (induced control).

[2] = Hydroxyl radical scavenging activity (2-deoxyribose degradation, Fenton reaction); details: for IC50 OH radical: hydroxyl radical content
Protocol: as §1
The formation of OH radicals from Fenton reagents was quantified using the condensation product of the 2-deoxyribose oxidative degradation product, malonaldehyde, with 2-thiobarbituric acid (TBA). Briefly, typical reactions were started by the addition of Fe^2+ (FeSO4 6 mM final concentration) to solutions containing 5 mM 2-deoxyribose, 100 mM H2O2 and 20 mM phosphate buffer (pH 7.2). In order to determine the antioxidant activity of the riparins against the hydroxyl radical, individual tests were performed on each one of the six substances, in which different concentrations of the riparins were added to the system before Fe^2+ addition (Rip-A; Rip-B; Rip-C; Rip-D; Rip-E and Rip-F). Reactions were carried out for 15 min at room temperature and were quenched by the addition of phosphoric acid 4% (v/v), followed by TBA 1% (thiobarbituric acid, v/v in 50 μL NaOH). The solutions were boiled for 15 min to 95 °C and then cooled at room temperature. The absorbance was measured at 532 nm and the results were expressed as MDA equivalents formed by Fe^2+ and H2O2 [25].

[3] = test system: HEP-2 (laryngeal carcinoma); assay: Cytotoxicity against tumor cell lines (MTT); type: cell-based; details: Homo sapiens, 72 h, 95% confidence interval in brackets, read-out: IC50 values and confidence intervals, HEP-2
Protocol: (§2) Cells were maintained at 37 °C with 5% CO2 in RPMI 1640 (Himedia^TM, Mumbai, India) or DMEM medium (Gibco^TM, Grand Island, NY, USA) supplemented with 2 mM glutamine, 100 U/mL penicillin, 100 μg/mL streptomycin. The antiproliferative activities of riparins were evaluated in the following human cancer cells lineage: HL-60 (pro-myelocytic leukemia), NCIH-292 (lung carcinoma), and HEP-2 (laryngeal carcinoma) obtained from the Rio de Janeiro Cell Bank (RJ-Brazil). For all experiments, 100 µL of tumor cells were plated in 96-well plates (6 × 10^4 cells/cm^2 for adherent cells or 9 × 10^4 cells/cm^2 for leukemia). Tested compounds (0.1–25 μg/mL) dissolved in 1% DMSO (100 µL) were added to each well and incubated for 72 h. Control groups received the same amount of DMSO. After 69 h of treatment, 25 μL of MTT (5 mg/mL) were added. Three hours later, the MTT formazan product was dissolved in 100 μL of DMSO, and absorbance was measured at 595 nm using a multiplate reader (Thermo Plate®, TP Reader, São Paulo, SP, Brasil).
(§3) The obtained data were evaluated by one-way analysis of variance (ANOVA) followed by a Student Newman Keuls post hoc test. The data concerning release percentage of cytoplasmatic enzyme lactate dehydrogenase (LDH) were reported by mean ± standard deviation and evaluated by one-way analysis of variance (ANOVA) followed by a Tukey post hoc test. In all cases differences were considered significant if p < 0.05, the means and respective standard errors were analyzed in the Graph Pad Prism version 5.0 for Windows software (GraphPad Software Incorporated, San Diego, CA, USA).

[4] = test system: HL-60 (pro-myelocytic leukemia); assay: Cytotoxicity against tumor cell lines (MTT); type: cell-based; details: Homo sapiens, 72 h, 95% confidence interval in brackets, read-out: IC50 values and confidence intervals, HL-60
Protocol: as §2, §3

[5] = test system: NCIH-292 (lung carcinoma); assay: Cytotoxicity against tumor cell lines (MTT); type: cell-based; details: Homo sapiens, NCI-H292, 72 h, 95% confidence interval in brackets, read-out: IC50 values and confidence intervals, NCIH-292
Protocol: as §2, §3

[6] = Scavenging activity of nitric oxide (nitrite production induced by SNP, Griess reaction); details: for IC50 Nitrite: nitrite formation
Protocol: as §1
Nitric oxide was generated from spontaneous decomposition of sodium nitroprusside in 20 mM phosphate buffer (pH 7.4). Once generated, NO interacts with oxygen to produce nitrite ions, which are measured by the Griess reaction. The reaction mixture (1 mL) containing 10 mM sodium nitroprusside (SNP) in phosphate buffer and the riparins at various concentrations of 1, 5, 10, 25 and 100 µg/mL were incubated at 37 °C for 1 h. A 0.5 mL aliquot was taken and homogenized with 0.5 mL Griess reagent. The absorbance of chromophore was measured at 540 nm. Percent inhibition of generated nitric oxide was measured by comparing the absorbance values of negative controls (only 10 mM sodium nitroprusside and vehicle) to assay preparations. Results were expressed as percentage of nitrite formed by SNP alone.

[7] = test system: murine peritoneal macrophages RAW 264.7; assay: Cytotoxicity assay on RAW 264.7 (LDH release); type: cell-based
Protocol: Murine peritoneal macrophages of the cell line RAW 264.7 were obtained from the American Type Culture Collection (ATCC, Rockville, MD, USA), and cultured at 37 °C with CO2 at 5% in DMEM-F12 supplemented with 10% fetal bovine serum (FBS; Hyclone^TM, Logan, UT, USA) and gentamicin (50 μg/mL). RAW 264.7 cells (5 × 10^5 cells/mL) were cultured and incubated for 24 h with the riparins A, B, C, D, E and F at the final concentration of 25 µg/mL […]. The cytotoxicity assay was performed by LDH assay. The release of LDH (cytoplasmic lactate dehydrogenase enzyme) was determined using 50 μL of culture supernatant with 100 μL of LDH substrate plus and 5 μL ferric alum (5 mg/mL), at 37 °C for 3 min. Then, 100 μL of the NAD solution and phenazine methosulphate were added to the mixture, maintaining the temperature at 37 °C for 5 min (Labrax Commercial Kit, Clontech, Palo Alto, CA, USA). LDH is an oxidoreductase which catalyzes the interconversion of lactate and pyruvate and, for being a stable cytosolic enzyme, after damage to cell membrane it is released in the cellular environment and because of this LDH is an indirect indicator of cytotoxicity. LDH concentration was determined by colorimetry at 492 nm. The specific release of LDH was calculated as percentage of the controls (not treated cells as negative control and cells treated with 1%Triton X-100 as positive control).
as §3

[8] = test system: tumor cells lines (leukemia and lung and laryngeal carcinoma); assay: Cytotoxicity on tumor cell lines, summary statements over the lines (MTT); type: cell-based; details: Homo sapiens; for IC50: leukemia and lung and laryngeal carcinoma, read-out: IC50 values on neoplastic cells (range over cell lines); for inhibition at 25 µg/mL: tumor cells lines, cytotoxicity samples tested at 25 µg/mL, read-out: cell growth inhibition rates
Protocol: as §1, §2

[9] = 140 μg/mL (standard antioxidant)

Compound	TBARS levels (% AAPH) ([1]; 1 μg/mL)	TBARS levels (% AAPH) ([1]; 5 μg/mL)	TBARS levels (% AAPH) ([1]; 10 μg/mL)	TBARS levels (% AAPH) ([1]; 25 μg/mL)	TBARS levels (% AAPH) ([1]; 100 μg/mL)	IC50 TBARS [1]	2-Deoxyribose degradation (%) ([2]; 1 μg/mL)	2-Deoxyribose degradation (%) ([2]; 5 μg/mL)	2-Deoxyribose degradation (%) ([2]; 10 μg/mL)	2-Deoxyribose degradation (%) ([2]; 25 μg/mL)	2-Deoxyribose degradation (%) ([2]; 100 μg/mL)	IC50 OH radical [2]	IC50 [4]	IC50 [5]	Nitrite Production (% induced by SNP) ([6]; 1 μg/mL)	Nitrite Production (% induced by SNP) ([6]; 5 μg/mL)	Nitrite Production (% induced by SNP) ([6]; 10 μg/mL)	Nitrite Production (% induced by SNP) ([6]; 25 μg/mL)	Nitrite Production (% induced by SNP) ([6]; 100 μg/mL)	IC50 Nitrite [6]	also measured
O=C(NCCc1ccccc1)c1ccccc1 [Rip-A, N-Phenethylbenzamide]	40.9 ± 1.77 ^a %	38.1 ± 0.49 ^a %	36.7 ± 0.66 ^a %	35.1 ± 0.88 ^a %	25.8 ± 0.48 ^a %	1.147 µg/mL (≈ 5.09 µM)	97.1 ± 0.78 ^a %	76.9 ± 1.10 ^a %	54.5 ± 0.85 ^a %	49.6 ± 0.89 ^a %	44.8 ± 0.30 ^a %	1.501 µg/mL (≈ 6.66 µM)	> 25 µg/mL	> 25 µg/mL	75.1 ± 1.31 ^a %	29.1 ± 0.61 ^a %	29.2 ± 2.05 ^a %	24.3 ± 0.62 ^a %	20.4 ± 1.20 ^a %	0.8404 µg/mL (≈ 3.73 µM)	IC50 [3]: > 25 µg/mL; LDH % Release ([7]; 25 µg/mL, RAW 264.7): 28.13%
COc1ccc(CCNC(=O)c2ccccc2)cc1OC [Rip-B, N-[2-(3,4-Dimethoxyphenyl)ethyl]benzamide]	44.5 ± 1.31 ^a %	40.4 ± 0.85 ^a %	38.3 ± 1.05 ^a %	36.5 ± 1.21 ^a %	29.7 ± 1.31 ^a %	1.032 µg/mL (≈ 3.62 µM)	98.4 ± 0.39 ^a %	79.8 ± 1.34 ^a %	58.5 ± 0.85 ^a %	47.7 ± 0.44 ^a %	47.2 ± 0.43 ^a %	1.639 µg/mL (≈ 5.74 µM)	> 25 µg/mL	> 25 µg/mL	75.8 ± 1.02 ^a %	34.1 ± 1.85 ^a %	29.1 ± 2.00 ^a %	23.1 ± 0.97 ^a %	20.6 ± 0.98 ^a %	0.7948 µg/mL (≈ 2.79 µM)	IC50 [3]: > 25 µg/mL; melting point: 90 °C; LDH % Release ([7]; 25 µg/mL, RAW 264.7): 17.31%
O=C(NCCc1ccccc1)c1ccccc1O [Rip-C, 2-Hydroxy-N-phenethylbenzamide]	39.3 ± 0.60 ^a %	38.8 ± 1.07 ^a %	34.3 ± 0.92 ^a %	29.5 ± 1.91 ^a %	25.7 ± 2.62 ^a %	0.8971 µg/mL (≈ 3.72 µM)	95.5 ± 1.30 ^a %	80.9 ± 1.29 ^a %	58.7 ± 1.37 ^a %	52.1 ± 0.13 ^a %	46.7 ± 0.35 ^a %	0.9516 µg/mL (≈ 3.94 µM)	3.3 µg/mL (≈ 13.7 µM)	> 25 µg/mL	69.3 ± 1.07 ^a %	34.9 ± 0.23 ^a %	22.9 ± 1.31 ^a %	19.8 ± 0.83 ^a %	16.5 ± 1.44 ^a %	0.7240 µg/mL (≈ 3 µM)	IC50 [3]: 7.3 µg/mL (≈ 30.3 µM); melting point: 95 °C; IC50 [8]: 1.9 to 11.4 µg/mL (≈ 7.87 to 47.2 µM); inhibition at 25 µg/mL [8]: > 70%; LDH % Release ([7]; 25 µg/mL, RAW 264.7): 87.35%; LDH % Release ([7]; 25 µg/mL, RAW 264.7, listed as riparin C): greater than 80%
O=C(NCCc1ccccc1)c1c(O)cccc1O [Rip-E, 2,6-Dihydroxy-N-phenethylbenzamide]	41.4 ± 0.69 ^a %	38.6 ± 0.63 ^a %	35.5 ± 0.37 ^a %	31.3 ± 0.76 ^a %	28.2 ± 0.39 ^a %	0.7821 µg/mL (≈ 3.04 µM)	79.9 ± 0.64 ^a %	62.2 ± 2.14 ^a %	53.4 ± 1.79 ^a %	51.4 ± 1.47 ^a %	49.4 ± 0.85 ^a %	1.054 µg/mL (≈ 4.1 µM)	1.9 µg/mL (≈ 7.38 µM)	> 25 µg/mL	65.9 ± 1.30 ^a %	37.7 ± 0.95 ^a %	25.1 ± 1.37 ^a %	20.1 ± 0.71 ^a %	15.4 ± 1.11 ^a %	0.5224 µg/mL (≈ 2.03 µM)	melting point: 155 °C; IC50 [8]: 1.9 to 11.4 µg/mL (≈ 7.38 to 44.3 µM); inhibition at 25 µg/mL [8]: > 70%; LDH % Release ([7]; 25 µg/mL, RAW 264.7): 96.91%; LDH % Release ([7]; 25 µg/mL, RAW 264.7, listed as riparin E): greater than 80%
Cc1c(C)c2c(c(C)c1O)CCC(C)(C(=O)O)O2 (stereo not shown) [Trolox, reference compound]	–	–	–	–	–	–	–	–	–	–	–	–	–	–	–	–	–	–	–	–	TBARS levels (% AAPH) [1, 9]: 55.3 ± 6.48 ^a %; 2-Deoxyribose degradation (%) [2, 9]: 21.4 ± 0.95 ^a %; Nitrite Production (% induced by SNP) [6, 9]: 40.2 ± 2.80 ^a %
Triton X-100 [Triton X-100 1%, reference compound]	–	–	–	–	–	–	–	–	–	–	–	–	–	–	–	–	–	–	–	–	LDH % Release [7]: 99.96%
